Results from US20240115547A1, “PSYCHOTROPIC AGENTS AND USES THEREOF” (LB PHARMACEUTICALS INC., priority 2021, published 2024).
Where two headings read alike, the source gives them in different places.

Experiments:
Dopamine (e.g., D2/D3) = experiment: Dopamine RO % by raclopride PET after LB-102, various dosage regimens (Example 3); format: in vivo, human; details: group mean
[1] = PK analysis of LB-102 in healthy human subjects, single and multiple ascending doses (Example 2); format: in vivo; details: for half-life / Cmax / Tmax: both sexes, plasma, oral
Protocol: Healthy females and males between 18 and 55 years of age with BMI≥18 and ≤30 kg/m2 were enrolled in the study. Exclusion criteria included: history or presence of psychiatric disorder, drug or alcohol abuse, history of QT prolongation or dysrhythmia, fasting blood glucose level of 126 mg/dL, or a known allergy to the drug or its metabolites. The study was planned as a two part study. Part A was comprised of 5 single ascending dose groups, each of 8 subjects. Part B was comprised of 3 multiple ascending doses, two doses a day for 7 days ([…] doses in total) each of 8 subjects. All subjects were randomized 3:1 drug:placebo. The primary endpoint of the study was safety, with pharmacokinetics as a secondary objective.
Plasma concentrations of LB-102 were obtained as a function of time for single oral administration of LB-102 to human subjects at 10 mg (larger cross), 50 mg (triangle), 100 mg (square), 150 mg (smaller cross), and 200 mg (diamond), respectively, are further provided in FIG. 3.

With `CCN1CCCC1CNC(=O)c1cc(S(=O)(=O)CC)c(NC)cc1OC` (stereo not drawn) [LB-102] as the compound, how does the “Dopamine RO % (Caudate + Putamen)” value (Dopamine (e.g., D2/D3); 50 mg SS (once a day for 4 days), 8 h after Day 4 administration) read?
Its value is 72%.

And the “Dopamine RO % (Caudate + Putamen)” value (Dopamine (e.g., D2/D3); 75 mg QD, 48 h after LB-102 administration)?
Its value is 37%.

What about the “AUC0-inf D1” value ([1]; 50 mg every 12 hours, D1, mean (SD)) of the same compound?
Its value is 1012.6 (100.4) ngh/mL.

And the “AUC0-inf D7” value ([1]; 50 mg every 12 hours, D7, mean (SD))?
Its value is 2489.1 (312.4) ngh/mL.

What about the CL/F ([1]; 50 mg every 12 hours, mean (SD)) of the same compound?
The CL/F was 33.8 (3.1) L/h.

What about the “AUC relative to AUC of 50 mg amisulpride” value ([1]; 50 mg oral LB-102 vs published 50 mg amisulpride) of the same compound?
Its value is “about 2.5 times”.

What about the “AUC0-inf D1” value ([1]; 75 mg every 12 hours, D1, mean (SD)) of the same compound?
The value was 1777.9 (309.0) ngh/mL.

And the CL/F ([1]; 75 mg every 12 hours, mean (SD))?
The CL/F was 34.9 (8.8) L/h.

What about the “AUC0-inf D1” value ([1]; 100 mg every 12 hours, D1, mean (SD)) of the same compound?
Its value is 2152.9 (439.9) ngh/mL.

And the “accumulation across dose levels” value ([1]; MAD portion of the study)?
Its value is “slight to moderate accumulation”.

What about the trough concentrations ([1]; MAD portion of the study) of the same compound?
Its trough concentrations is “plateaued prior to the morning dose on Day 4”.

What about the half-life ([1]; human, 10 mg, single administration 10 mg, mean (SD), read-out: T1/2 (converted)) of the same compound?
Its half-life is 13.7 h.

And the Cmax ([1]; human, 10 mg, single administration 10 mg, mean, read-out: Cmax)?
The Cmax was 24.1 ng/mL.

And the Tmax ([1]; human, 10 mg, single administration 10 mg, read-out: Tmax)?
Its Tmax is 3 h.

And the Cmax ([1]; human, 50 mg, 50 mg every 12 hours, D1, mean (SD), read-out: Cmax D1)?
The Cmax was 126 ng/mL.

And the half-life ([1]; human, 50 mg, 50 mg every 12 hours, D1, mean (SD), read-out: T1/2 D1 (converted))?
Its half-life is 4.2 h.

And the Tmax ([1]; human, 50 mg, 50 mg every 12 hours, D1, read-out: Tmax D1)?
Its Tmax is 2.5 h.

What about the Cmax ([1]; human, 50 mg, 50 mg every 12 hours, D7, mean (SD), read-out: Cmax D7) of the same compound?
The Cmax was 224 ng/mL.

What about the half-life ([1]; human, 50 mg, 50 mg every 12 hours, D7, mean (SD), read-out: T1/2 D7 (converted)) of the same compound?
The half-life was 14.3 h.

And the Tmax ([1]; human, 50 mg, 50 mg every 12 hours, D7, read-out: Tmax D7)?
Its Tmax is 2.5 h.

And the half-life ([1]; human, 50 mg, single administration 50 mg, mean (SD), read-out: T1/2 (converted))?
Its half-life is 11.9 h.

And the Cmax ([1]; human, 50 mg, single administration 50 mg, mean, read-out: Cmax)?
Its Cmax is 176 ng/mL.

And the Tmax ([1]; human, 50 mg, single administration 50 mg, read-out: Tmax)?
The Tmax was 3 h.

What about the Cmax ([1]; human, 75 mg, 75 mg every 12 hours, D1, mean (SD), read-out: Cmax D1) of the same compound?
Its Cmax is 267 ng/mL.

And the half-life ([1]; human, 75 mg, 75 mg every 12 hours, D1, mean (SD), read-out: T1/2 D1 (converted))?
The half-life was 4 h.

What about the Tmax ([1]; human, 75 mg, 75 mg every 12 hours, D1, read-out: Tmax D1) of the same compound?
Its Tmax is 3 h.

And the Cmax ([1]; human, 75 mg, 75 mg every 12 hours, D7, mean (SD), read-out: Cmax D7)?
Its Cmax is 309 ng/mL.

What about the Tmax ([1]; human, 75 mg, 75 mg every 12 hours, D7, read-out: Tmax D7) of the same compound?
The Tmax was 2 h.

What about the Cmax ([1]; human, 100 mg, 100 mg every 12 hours, D1, mean (SD), read-out: Cmax D1) of the same compound?
Its Cmax is 325 ng/mL.

What about the half-life ([1]; human, 100 mg, 100 mg every 12 hours, D1, mean (SD), read-out: T1/2 D1 (converted)) of the same compound?
Its half-life is 4.12 h.

What about the Tmax ([1]; human, 100 mg, 100 mg every 12 hours, D1, read-out: Tmax D1) of the same compound?
The Tmax was 2.5 h.

What about the half-life ([1]; human, 100 mg, single administration 100 mg, mean (SD), read-out: T1/2 (converted)) of the same compound?
Its half-life is 14.1 h.

And the Cmax ([1]; human, 100 mg, single administration 100 mg, mean, read-out: Cmax)?
Its Cmax is 348 ng/mL.

What about the Tmax ([1]; human, 100 mg, single administration 100 mg, read-out: Tmax) of the same compound?
Its Tmax is 3 h.

What about the half-life ([1]; human, 150 mg, single administration 150 mg, mean (SD), read-out: T1/2 (converted)) of the same compound?
Its half-life is 12 h.

What about the Cmax ([1]; human, 150 mg, single administration 150 mg, mean, read-out: Cmax) of the same compound?
The Cmax was 596 ng/mL.

And the Tmax ([1]; human, 150 mg, single administration 150 mg, read-out: Tmax)?
Its Tmax is 3 h.

And the half-life ([1]; human, 200 mg, single administration 200 mg, mean (SD), read-out: T1/2 (converted))?
Its half-life is 13 h.

What about the Cmax ([1]; human, 200 mg, single administration 200 mg, mean, read-out: Cmax) of the same compound?
The Cmax was 976 ng/mL.

And the Tmax ([1]; human, 200 mg, single administration 200 mg, read-out: Tmax)?
The Tmax was 3 h.

And the “metabolism of LB-102 to amisulpride” value ([1]; human (FIG. 2))?
The value was under 3%.

And the “increase of exposure with dose” value ([1]; oral dosing, human)?
Its value is “slightly greater than dose proportional”.

And the absorption ([1]; orally dosed, human)?
The absorption was “rapidly absorbed”.

And the AUC0-inf ([1]; single administration 10 mg, mean)?
Its AUC0-inf is 252.6 ngh/mL.

What about the CL/F ([1]; single administration 10 mg, mean (SD)) of the same compound?
Its CL/F is 42.4 (12.6) L/h.

And the AUC0-inf ([1]; single administration 50 mg, mean)?
The AUC0-inf was 1595.9 ngh/mL.

And the CL/F ([1]; single administration 50 mg, mean (SD))?
Its CL/F is 31.7 (3.8) L/h.

And the AUC0-inf ([1]; single administration 100 mg, mean)?
Its AUC0-inf is 2809.8 ngh/mL.

What about the CL/F ([1]; single administration 100 mg, mean (SD)) of the same compound?
The CL/F was 36.6 (6.9) L/h.

And the AUC0-inf ([1]; single administration 150 mg, mean)?
The AUC0-inf was 4636.6 ngh/mL.

And the CL/F ([1]; single administration 150 mg, mean (SD))?
Its CL/F is 33.1 (5.3) L/h.

What about the AUC0-inf ([1]; single administration 200 mg, mean) of the same compound?
Its AUC0-inf is 7002.1 ngh/mL.

And the CL/F ([1]; single administration 200 mg, mean (SD))?
The CL/F was 28.9 (3.4) L/h.

And the AUC ([1]; single oral administration of 50 mg to human subjects (FIG. 4B))?
Its AUC is 1,595 ngh/mL.
